{
  "source": "patent US20180354991A1",
  "about": "“THERAPEUTIC COMPOSITIONS INCLUDING GRAMICIDIN S PEPTIDYL CONJUGATES OR IMIDAZOLE-SUBSTITUTED FATTY ACIDS, VARIANTS THEREOF AND USES THEREOF” (Stealth Biotherapeutics Corp, priority 2015, published 2018)",
  "system": "neonatal cardiomyocytes",
  "experiment": "Ang II-induced mitochondrial superoxide (Mitosox) in neonatal cardiomyocytes",
  "format": "cell-based, mouse",
  "details": "Angiotensin II 1 μM for 3 hours; peptide conjugates 1 nM or equimolar; NAC 0.5 mM",
  "description": "Ventricles from mouse neonates younger than 72 hours will be dissected, minced, and enzymatically digested with Blendzyme 4 (45 mg/mL, Roche). After enzymatic digestion, cardiomyocytes will be enriched using differential pre-plating for 2 hours, and seeded on fibronectin-coated culture dishes for 24 hours in DMEM (Gibco) with 20% Fetal Bovine Seium (Sigma) and 25 μM Arabinosylcytosine (Sigma). Cardiomyocytes will be stimulated with Angiotensin II (1 μM) for 3 hours in serum-free DMEM containing 0.5% insulin transferrin-selenium (Sigma), 2 mM glutamine, and 1 mg/mL BSA. […] Samples will be analyzed using excitation/emission of 488/625 nm by flow cytometry. Flow data will be analyzed using FCS Express (De Novo Software, Los Angeles, Calif., U.S.A.), and presented as histogram distributions of Mitosox fluorescence intensity.",
  "data": [
    {"molecule": "CC(=O)N[C@@H](CS)C(=O)O", "note": "[N-acetyl cysteine]", "values": [
      {"measurement": "Ang II-induced Mitosox fluorescence (mitochondrial ROS)", "value": "not show any effect"}
    ]}
  ]
}
